Several values for one entry are separate records, joined by “and”; a condition that tells them apart may be missing. Identical values can stand only once. Inconclusive results and toxic doses are left out. Rule for the calls: active = survival T/C of 150% or more; inactive = T/C below 125% in these data.
Tested on: CD2F1 mice, L1210 leukemia ip, survival T/C
Assay: NCI In Vivo Anticancer Drug Screen. Data for tumor model L1210 Leukemia (intraperitoneal) in CD2F1 (CDF1) mice
Conditions: endpoint: mean survival time, higher = longer survival
Outline: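 Tumor-bearing mice (transplanted tumor) were split into treated and vehicle control groups, and the measured endpoint of each treated group was divided by that of its vehicle controls.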

[1] = dose: 100.0 mg/kg/injection, schedule: Q04DX003 (ip), vehicle: saline
[2] = dose: 100.0 mg/kg/injection, schedule: Q01DX009 (ip), vehicle: saline with Tween-80
[3] = dose: 200.0 mg/kg/injection, schedule: Q01DX009 (ip), vehicle: saline with Tween-80
[4] = dose: 400.0 mg/kg/injection, schedule: Q01DX009 (ip), vehicle: saline with Tween-80
[5] = dose: 100.0 mg/kg/injection, schedule: Q04DX003 (ip), vehicle: saline with Tween-80
[6] = dose: 200.0 mg/kg/injection, schedule: Q04DX003 (ip), vehicle: saline with Tween-80
[7] = dose: 400.0 mg/kg/injection, schedule: Q04DX003 (ip), vehicle: saline with Tween-80
[8] = dose: 25.0 mg/kg/injection, schedule: Q01DX009 (ip), vehicle: saline with Tween-80
[9] = dose: 50.0 mg/kg/injection, schedule: Q01DX009 (ip), vehicle: saline with Tween-80
[10] = dose: 6.25 mg/kg/injection, schedule: Q01DX009 (ip), vehicle: saline with Tween-80
[11] = dose: 12.5 mg/kg/injection, schedule: Q01DX009 (ip), vehicle: saline with Tween-80
[12] = dose: 200.0 mg/kg/injection, schedule: Q04DX003 (ip), vehicle: saline
[13] = dose: 400.0 mg/kg/injection, schedule: Q04DX003 (ip), vehicle: saline
[14] = dose: 100.0 mg/kg/injection, schedule: Q01DX009 (ip), vehicle: saline
[15] = dose: 200.0 mg/kg/injection, schedule: Q01DX009 (ip), vehicle: saline

Measured: T/C

NCCCNC/C=C/CNCCCN
inactive: dose: 37.5 mg/kg/injection, schedule: Q01DX009 (ip), vehicle: saline 98 % of control | dose: 75.0 mg/kg/injection, schedule: Q01DX009 (ip), vehicle: saline 101 % of control | dose: 150.0 mg/kg/injection, schedule: Q01DX009 (ip), vehicle: saline 101 % of control

Cn1ncc2c1C(=O)c1nc(-c3ccccc3)c(-c3ccccc3)nc1C2=O
inactive: dose: 50.0 mg/kg/injection, schedule: Q04DX003 (ip), vehicle: saline 98 % of control | [1] 92 % of control

Cc1cc(Cl)c2nc(-c3ccccc3)ccc2c1
inactive: [2] 103 % of control | [3] 101 % of control | [4] 97 % of control

CCOC(=O)CCOc1ccc(Cl)cc1
inactive: [2] 95 % of control | [5] 89 % of control | [3] 97 % of control | [6] 93 % of control | [4] 104 % of control | [7] 91 % of control

CCOC(=O)C(OC(=O)c1ccccc1)c1ccccc1 (centres undefined)
inactive: dose: 100.0 mg/kg/injection, schedule: Q01DX009 (ip), vehicle: other 98 % of control | dose: 200.0 mg/kg/injection, schedule: Q01DX009 (ip), vehicle: other 96 % of control | dose: 400.0 mg/kg/injection, schedule: Q01DX009 (ip), vehicle: other 96 % of control

CCn1cnc(-c2ccccc2)c1-c1ccccc1
inactive: [8] 110 % of control | [9] 107 % of control | [2] 98 % of control | [5] 101 % of control

Cc1nc2[nH]c(=O)[nH]c(=O)c2[nH]1
inactive: [8] 94 % of control | [9] 96 % of control | [2] 92 % of control

c1ccc(-c2ccc(C3=NC(c4ccccc4)N4C3C4c3ccccc3)cc2)cc1 (centres undefined)
inactive: dose: 6.25 mg/kg/injection, schedule: Q01DX001 (ip), vehicle: saline with Tween-80 103 % of control | [10] 91 % of control | dose: 12.5 mg/kg/injection, schedule: Q01DX001 (ip), vehicle: saline with Tween-80 86 % of control | [11] 94 % of control | dose: 25.0 mg/kg/injection, schedule: Q01DX001 (ip), vehicle: saline with Tween-80 92 % of control

CN(CCl)S(=O)(=O)c1ccccc1
inactive: [2] 100 % of control | [5] 112 % of control | [3] 104 % of control | [6] 101 % of control | [4] 102 % of control | [7] 100 % of control

CC(=O)OC1CCC2(C)C(CCC3C2CC(OC(C)=O)C2(C)C3CCC2C2(C)SCCS2)C1 (centres undefined)
inactive: dose: 50.0 mg/kg/injection, schedule: Q04DX002 (ip), vehicle: Klucel (hydroxypropylcellulose) (HPC) 95 % of control | dose: 100.0 mg/kg/injection, schedule: Q04DX002 (ip), vehicle: Klucel (hydroxypropylcellulose) (HPC) 98 % of control | dose: 200.0 mg/kg/injection, schedule: Q04DX002 (ip), vehicle: Klucel (hydroxypropylcellulose) (HPC) 88 % of control

COc1ccccc1NC(=S)N(C)C
inactive: [9] 98 % of control | [2] 101 % of control | [3] 98 % of control

CCC[CH2][Sn]1([CH2]CCC)[O]OC2(CCCCC2)[O]1
inactive: dose: 1.25 mg/kg/injection, schedule: Q01DX009 (ip), vehicle: saline with Tween-80 105 % of control | dose: 2.5 mg/kg/injection, schedule: Q01DX009 (ip), vehicle: saline with Tween-80 105 % of control | dose: 5.0 mg/kg/injection, schedule: Q01DX009 (ip), vehicle: saline with Tween-80 105 % of control

COCCOC(C)C(=O)C(O)S(=O)(=O)O (centres undefined)
inactive: dose: 50.0 mg/kg/injection, schedule: Q01DX001 (ip), vehicle: saline 98 % of control | dose: 100.0 mg/kg/injection, schedule: Q01DX001 (ip), vehicle: saline 102 % of control | [1] 103 % of control | dose: 200.0 mg/kg/injection, schedule: Q01DX001 (ip), vehicle: saline 100 % of control | [12] 103 % of control | dose: 400.0 mg/kg/injection, schedule: Q01DX001 (ip), vehicle: saline 100 % of control | [13] 103 % of control

CC/C=C(/CC)C1CCCCC1C (centres undefined)
inactive: [9] 87 % of control | [2] 96 % of control | [3] 96 % of control

CC1CCCC(C)N1CC(O)c1ccccc1 (centres undefined)
inactive: [10] 98 % of control | [11] 100 % of control | [8] 102 % of control

CN(C)S(=O)(=O)Oc1ccccc1N
inactive: [5] 99 % of control | [6] 87 % of control | [7] 94 % of control

O=C([O][Sb]([O]C(=O)C(Br)Br)([c]1ccccc1)([c]1ccccc1)[c]1ccccc1)C(Br)Br
inactive: [5] 95 % of control | [6] 89 % of control | [7] 95 % of control

COc1ccc(C(=O)CCC(=O)O)c(C)c1
inactive: [1] 96 % of control | [12] 94 % of control | [13] 92 % of control

CC(=O)Nc1ccc2ccccc2c1
inactive: [5] 103 % of control | [6] 93 % of control | [7] 104 % of control

CCCCCCOS(=O)OC(C)C(Cl)C(=O)OCC (centres undefined)
inactive: [2] 97 % of control | [3] 97 % of control | [4] 100 % of control

C1=CC(=P(c2ccccc2)(c2ccccc2)c2ccccc2)C=C1
inactive: [2] 98 % of control | [5] 94 % of control | [3] 100 % of control | [6] 95 % of control | dose: 240.0 mg/kg/injection, schedule: Q01DX015 (ip), vehicle: saline 87 % of control | [4] 94 % of control | [7] 94 % of control | dose: 480.0 mg/kg/injection, schedule: Q01DX015 (ip), vehicle: saline 87 % of control | dose: 960.0 mg/kg/injection, schedule: Q01DX015 (ip), vehicle: saline 92 % of control

CC(=O)O[C@H]1C(=O)[C@@]2(C)[C@H]([C@H](OC(=O)c3ccccc3)[C@]3(O)C[C@H](OC(=O)[C@H](O)[C@@H](NC(=O)c4ccccc4)c4ccccc4)C(C)=C1C3(C)C)[C@]1(OC(C)=O)CO[C@@H]1C[C@@H]2O
inactive: dose: 1.25 mg/kg/injection, schedule: Q01DX009 (ip), vehicle: Klucel (hydroxypropylcellulose) (HPC) 93 % of control | dose: 2.5 mg/kg/injection, schedule: Q01DX009 (ip), vehicle: Klucel (hydroxypropylcellulose) (HPC) 98 % of control | dose: 5.0 mg/kg/injection, schedule: Q01DX009 (ip), vehicle: Klucel (hydroxypropylcellulose) (HPC) 113 % of control and 102 % of control | dose: 10.0 mg/kg/injection, schedule: Q01DX009 (ip), vehicle: Klucel (hydroxypropylcellulose) (HPC) 115 % of control | dose: 40.0 mg/kg/injection, schedule: Q01DX009 (ip), vehicle: Klucel (hydroxypropylcellulose) (HPC) 107 % of control

CCN(CC)CCNc1nc(-c2cc(C(F)(F)F)cc(C(F)(F)F)c2)nc(C(Cl)(Cl)Cl)n1
inactive: dose: 100.0 mg/kg/injection, schedule: Q01DX005 (ip), vehicle: saline 100 % of control | [14] 93 % of control | dose: 200.0 mg/kg/injection, schedule: Q01DX005 (ip), vehicle: saline 103 % of control | [15] 93 % of control | dose: 400.0 mg/kg/injection, schedule: Q01DX005 (ip), vehicle: saline 95 % of control | dose: 400.0 mg/kg/injection, schedule: Q01DX009 (ip), vehicle: saline 93 % of control

NCCC(O)C(=O)NC1CC(N)C(OC2OC(CN)C(O)C(O)C2N)C(OC2OC(CO)C(O)C2O)C1O (centres undefined)
inactive: dose: 50.0 mg/kg/injection, schedule: Q04DX002 (ip), vehicle: saline with Tween-80 100 % of control | dose: 50.0 mg/kg/injection, schedule: Q04DX002 (ip), vehicle: saline 98 % of control | dose: 100.0 mg/kg/injection, schedule: Q04DX002 (ip), vehicle: saline with Tween-80 100 % of control | dose: 100.0 mg/kg/injection, schedule: Q04DX002 (ip), vehicle: saline 98 % of control | dose: 200.0 mg/kg/injection, schedule: Q04DX002 (ip), vehicle: saline with Tween-80 96 % of control | dose: 200.0 mg/kg/injection, schedule: Q04DX002 (ip), vehicle: saline 95 % of control | dose: 400.0 mg/kg/injection, schedule: Q04DX002 (ip), vehicle: saline with Tween-80 96 % of control | dose: 400.0 mg/kg/injection, schedule: Q04DX002 (ip), vehicle: saline 98 % of control

CN1C(=S)[N+](C)(C)N=C1[O-]
inactive: dose: 50.0 mg/kg/injection, schedule: Q01DX009 (ip), vehicle: saline 107 % of control | [14] 108 % of control | [1] 100 % of control | [15] 113 % of control | [12] 105 % of control | [13] 101 % of control

CCOC(=O)N[C@H]1CCc2cc(OC)c(OC)c(OC)c2-c2ccc(SC)c(=O)cc21
inactive: dose: 0.38 mg/kg/injection, schedule: Q01DX009 (ip), vehicle: other 103 % of control | dose: 0.75 mg/kg/injection, schedule: Q01DX009 (ip), vehicle: other 108 % of control | dose: 1.5 mg/kg/injection, schedule: Q01DX009 (ip), vehicle: other 114 % of control
